{"source": "ChEMBL document CHEMBL4229504", "about": "“Incorporation of histone deacetylase inhibitory activity into the core of tamoxifen - A new hybrid design paradigm” (Bioorg Med Chem, 2018)", "key": {"Estrogen receptor [1]": {"target": "T1, Estrogen receptor (Homo sapiens, UniProt P03372)", "T1 sequence (P03372 whole entry)": "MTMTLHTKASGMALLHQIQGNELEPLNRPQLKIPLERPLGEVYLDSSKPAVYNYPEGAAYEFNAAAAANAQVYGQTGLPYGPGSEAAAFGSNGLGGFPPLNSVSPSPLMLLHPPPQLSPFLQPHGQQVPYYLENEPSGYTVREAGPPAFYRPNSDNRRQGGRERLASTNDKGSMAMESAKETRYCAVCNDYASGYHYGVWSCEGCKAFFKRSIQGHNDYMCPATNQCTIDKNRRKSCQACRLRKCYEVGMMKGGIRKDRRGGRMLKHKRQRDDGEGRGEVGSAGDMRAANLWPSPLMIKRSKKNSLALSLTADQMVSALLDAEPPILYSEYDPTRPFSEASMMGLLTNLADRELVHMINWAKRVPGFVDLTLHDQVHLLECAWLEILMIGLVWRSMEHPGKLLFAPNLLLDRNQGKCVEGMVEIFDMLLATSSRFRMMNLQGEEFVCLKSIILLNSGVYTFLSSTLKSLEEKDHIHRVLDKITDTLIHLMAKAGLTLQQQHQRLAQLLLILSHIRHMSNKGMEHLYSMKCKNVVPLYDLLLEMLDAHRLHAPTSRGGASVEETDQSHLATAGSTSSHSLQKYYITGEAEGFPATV", "assay": "Antagonist activity at recombinant human ERalpha expressed in HEK293 cells assessed as inhibition of estradiol-induced YFP-fused SRC1 coactivator recruitment measured after 1 hr in presence of Coelenterazine H by BRET assay", "type": "cell-based"}, "Estrogen receptor [2]": {"target": "T1, Estrogen receptor", "assay": "Partial agonist activity at recombinant human ERalpha expressed in HEK293 cells assessed as YFP-fused SRC1 coactivator recruitment measured after 1 hr in presence of Coelenterazine H by BRET assay", "type": "cell-based", "conditions": "hek293, 1 h"}, "[3]": {"target": "T2, Protein deacetylase HDAC6 (Homo sapiens, UniProt Q9UBN7)", "T2 sequence (Q9UBN7 whole entry)": "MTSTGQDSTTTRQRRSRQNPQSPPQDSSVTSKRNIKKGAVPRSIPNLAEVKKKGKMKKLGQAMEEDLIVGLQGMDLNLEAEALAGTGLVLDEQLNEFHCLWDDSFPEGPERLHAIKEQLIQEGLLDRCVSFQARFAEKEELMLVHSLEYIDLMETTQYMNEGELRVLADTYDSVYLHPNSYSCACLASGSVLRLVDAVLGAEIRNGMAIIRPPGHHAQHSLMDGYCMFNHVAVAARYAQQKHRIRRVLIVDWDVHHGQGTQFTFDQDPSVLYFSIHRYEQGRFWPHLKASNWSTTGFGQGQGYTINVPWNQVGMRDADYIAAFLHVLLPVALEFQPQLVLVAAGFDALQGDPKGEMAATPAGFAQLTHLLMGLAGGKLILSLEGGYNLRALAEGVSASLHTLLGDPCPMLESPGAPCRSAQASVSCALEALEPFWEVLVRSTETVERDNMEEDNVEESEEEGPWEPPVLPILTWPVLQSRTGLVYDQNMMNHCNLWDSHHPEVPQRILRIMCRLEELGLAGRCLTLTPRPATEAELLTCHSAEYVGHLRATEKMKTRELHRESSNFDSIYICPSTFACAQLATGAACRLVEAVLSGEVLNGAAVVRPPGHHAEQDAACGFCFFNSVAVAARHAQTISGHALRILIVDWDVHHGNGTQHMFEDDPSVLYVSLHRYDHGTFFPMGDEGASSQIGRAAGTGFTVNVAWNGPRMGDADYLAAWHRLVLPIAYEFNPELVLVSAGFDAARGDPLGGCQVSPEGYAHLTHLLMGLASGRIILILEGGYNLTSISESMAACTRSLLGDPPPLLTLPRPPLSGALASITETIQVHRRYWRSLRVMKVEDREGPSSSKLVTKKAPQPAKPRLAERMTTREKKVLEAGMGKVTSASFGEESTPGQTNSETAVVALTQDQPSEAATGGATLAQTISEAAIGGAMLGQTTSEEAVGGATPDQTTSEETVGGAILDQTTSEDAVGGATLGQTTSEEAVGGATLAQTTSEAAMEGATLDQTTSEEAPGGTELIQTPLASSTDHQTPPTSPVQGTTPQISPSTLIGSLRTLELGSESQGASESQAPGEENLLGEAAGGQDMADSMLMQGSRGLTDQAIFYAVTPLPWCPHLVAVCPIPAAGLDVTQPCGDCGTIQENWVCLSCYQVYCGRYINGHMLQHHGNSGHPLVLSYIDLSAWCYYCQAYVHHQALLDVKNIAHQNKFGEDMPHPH", "assay": "Inhibition of full length recombinant human N-terminal GST-tagged HDAC6 expressed in Sf9 cells using Ac-Leu-Gly-Lys(Ac)-AMC as substrate measured after 30 mins by fluorescence assay"}, "[4]": {"target": "Histone deacetylase 3/Nuclear receptor corepressor 2 (HDAC3/NCoR2) (Homo sapiens, UniProt O15379)", "sequence (O15379 whole entry, the tested form may be a part)": "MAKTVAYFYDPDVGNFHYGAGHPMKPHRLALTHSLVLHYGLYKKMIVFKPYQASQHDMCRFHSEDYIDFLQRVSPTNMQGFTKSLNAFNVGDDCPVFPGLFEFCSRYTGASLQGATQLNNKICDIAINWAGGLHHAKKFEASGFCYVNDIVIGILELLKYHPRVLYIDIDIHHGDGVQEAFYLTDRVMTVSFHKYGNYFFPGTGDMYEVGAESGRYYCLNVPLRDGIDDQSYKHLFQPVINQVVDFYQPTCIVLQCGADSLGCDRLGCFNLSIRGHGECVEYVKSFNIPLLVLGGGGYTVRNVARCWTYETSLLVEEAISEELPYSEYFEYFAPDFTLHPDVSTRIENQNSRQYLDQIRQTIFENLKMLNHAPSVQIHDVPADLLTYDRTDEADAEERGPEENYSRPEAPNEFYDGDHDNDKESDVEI", "sequence (Q9Y618 whole entry, further chain, the tested form may be a part)": "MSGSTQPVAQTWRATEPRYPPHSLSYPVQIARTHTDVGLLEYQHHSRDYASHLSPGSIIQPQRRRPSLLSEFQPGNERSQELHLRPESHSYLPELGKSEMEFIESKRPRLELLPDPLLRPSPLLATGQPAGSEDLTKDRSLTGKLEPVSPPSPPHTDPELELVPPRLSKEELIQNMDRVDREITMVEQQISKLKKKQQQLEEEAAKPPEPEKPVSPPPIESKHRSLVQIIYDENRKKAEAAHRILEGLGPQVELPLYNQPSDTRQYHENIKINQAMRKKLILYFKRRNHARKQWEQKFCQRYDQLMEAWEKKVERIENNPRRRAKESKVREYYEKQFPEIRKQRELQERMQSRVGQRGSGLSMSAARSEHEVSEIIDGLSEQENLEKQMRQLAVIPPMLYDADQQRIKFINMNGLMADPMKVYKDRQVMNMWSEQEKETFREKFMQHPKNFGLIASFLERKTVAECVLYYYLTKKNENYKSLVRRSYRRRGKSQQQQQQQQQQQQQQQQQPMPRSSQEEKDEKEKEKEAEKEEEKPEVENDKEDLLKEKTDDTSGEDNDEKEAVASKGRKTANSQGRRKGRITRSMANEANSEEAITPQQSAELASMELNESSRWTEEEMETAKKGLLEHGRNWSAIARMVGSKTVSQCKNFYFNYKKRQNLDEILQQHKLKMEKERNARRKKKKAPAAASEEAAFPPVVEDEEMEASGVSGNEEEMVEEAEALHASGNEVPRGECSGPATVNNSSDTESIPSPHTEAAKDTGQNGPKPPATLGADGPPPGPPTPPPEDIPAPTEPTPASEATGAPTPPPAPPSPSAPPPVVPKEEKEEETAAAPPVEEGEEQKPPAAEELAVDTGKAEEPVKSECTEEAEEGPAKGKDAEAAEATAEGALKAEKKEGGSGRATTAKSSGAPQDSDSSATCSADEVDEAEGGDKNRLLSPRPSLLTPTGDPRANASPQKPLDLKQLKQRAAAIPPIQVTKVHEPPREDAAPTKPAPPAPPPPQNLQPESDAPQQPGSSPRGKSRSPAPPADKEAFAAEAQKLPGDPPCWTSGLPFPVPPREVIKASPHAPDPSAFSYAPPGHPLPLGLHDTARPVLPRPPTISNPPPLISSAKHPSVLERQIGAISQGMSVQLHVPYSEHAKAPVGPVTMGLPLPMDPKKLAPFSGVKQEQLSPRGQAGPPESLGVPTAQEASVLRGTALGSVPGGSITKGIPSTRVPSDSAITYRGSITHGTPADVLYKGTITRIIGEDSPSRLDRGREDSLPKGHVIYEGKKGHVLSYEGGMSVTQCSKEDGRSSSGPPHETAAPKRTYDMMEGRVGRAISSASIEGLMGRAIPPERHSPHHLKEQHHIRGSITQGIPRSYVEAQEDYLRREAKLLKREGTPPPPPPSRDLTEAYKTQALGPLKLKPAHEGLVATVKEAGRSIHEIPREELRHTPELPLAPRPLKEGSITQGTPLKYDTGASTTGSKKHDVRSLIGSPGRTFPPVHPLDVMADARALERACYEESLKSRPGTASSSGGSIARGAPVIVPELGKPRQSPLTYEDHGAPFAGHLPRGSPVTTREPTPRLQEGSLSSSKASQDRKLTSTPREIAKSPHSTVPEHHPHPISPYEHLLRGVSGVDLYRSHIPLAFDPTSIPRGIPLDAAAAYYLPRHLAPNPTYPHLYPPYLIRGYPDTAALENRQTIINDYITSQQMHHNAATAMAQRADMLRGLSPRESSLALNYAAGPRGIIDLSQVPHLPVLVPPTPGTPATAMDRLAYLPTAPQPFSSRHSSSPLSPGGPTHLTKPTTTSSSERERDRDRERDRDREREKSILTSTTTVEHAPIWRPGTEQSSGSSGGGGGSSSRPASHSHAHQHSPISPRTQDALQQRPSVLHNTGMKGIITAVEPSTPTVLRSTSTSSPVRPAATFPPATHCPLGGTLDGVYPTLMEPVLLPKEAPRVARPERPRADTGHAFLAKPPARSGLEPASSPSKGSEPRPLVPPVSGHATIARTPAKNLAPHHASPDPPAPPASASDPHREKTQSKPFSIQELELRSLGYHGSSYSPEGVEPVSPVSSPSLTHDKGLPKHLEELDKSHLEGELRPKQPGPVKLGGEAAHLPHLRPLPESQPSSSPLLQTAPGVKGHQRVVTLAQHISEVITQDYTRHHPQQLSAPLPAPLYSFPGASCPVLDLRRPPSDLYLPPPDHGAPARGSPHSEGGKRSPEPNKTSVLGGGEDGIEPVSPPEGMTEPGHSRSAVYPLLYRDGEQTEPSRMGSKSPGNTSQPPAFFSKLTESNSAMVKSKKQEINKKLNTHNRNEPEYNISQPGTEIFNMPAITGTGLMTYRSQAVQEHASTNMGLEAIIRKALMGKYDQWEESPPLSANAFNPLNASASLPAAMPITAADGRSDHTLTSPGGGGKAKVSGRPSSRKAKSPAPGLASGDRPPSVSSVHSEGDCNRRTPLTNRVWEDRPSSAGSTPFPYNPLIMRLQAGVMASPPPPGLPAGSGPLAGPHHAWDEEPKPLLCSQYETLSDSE", "assay": "Inhibition of human full length C-terminal His-tagged HDAC3/N-terminal GST-tagged human NCOR2 (395 to 489 residues) expressed in baculovirus expression system using Ac-Leu-Gly-Lys(Ac)-AMC as substrate measured after 30 mins by fluorescence assay"}, "MCF7 [5]": {"system": "MCF7", "assay": "Cytotoxicity against ER positive human MCF7 cells treated every 2 days for 4 days measured post last dose by CellTiter-Glo luminescence assay", "type": "functional, cell-based"}, "MCF7 [6]": {"system": "MCF7", "assay": "Cytotoxicity against ER positive human MCF7 cells treated every 2 days for 4 days measured after 7 days by CellTiter-Glo luminescence assay", "type": "functional, cell-based"}, "MDA-MB-231 [7]": {"system": "MDA-MB-231", "assay": "Cytotoxicity against ER negative human MDA-MB-231 cells treated every 2 days for 4 days measured post last dose by CellTiter-Glo luminescence assay", "type": "functional, cell-based"}, "MDA-MB-231 [8]": {"system": "MDA-MB-231", "assay": "Cytotoxicity against ER negative human MDA-MB-231 cells treated every 2 days for 4 days measured after 7 days by CellTiter-Glo luminescence assay", "type": "functional, cell-based"}, "MCF-10A [9]": {"system": "MCF-10A", "assay": "Cytotoxicity against ER negative human MCF10A cells treated every 2 days for 4 days measured post last dose by CellTiter-Glo luminescence assay", "type": "functional, cell-based"}, "MCF-10A [10]": {"system": "MCF-10A", "assay": "Cytotoxicity against ER negative human MCF10A cells treated every 2 days for 4 days measured after 7 days by CellTiter-Glo luminescence assay", "type": "functional, cell-based"}, "[11]": {"target": "T3, Histone deacetylase 6/3 (Homo sapiens) (UniProt O15379+Q9UBN7)", "T3 sequence (O15379 whole entry, looked up, one chain of several)": "as the sequence (O15379 whole entry, the tested form may be a part) above", "assay": "Inhibition of HDAC6/HDAC3 in human MCF7 cells assessed as induction of SREBF1 mRNA expression at 5 uM after 24 hrs by QIAzol reagent based RT-qPCR analysis", "type": "cell-based"}, "[12]": {"target": "T3, Histone deacetylase 6/3 (Homo sapiens)", "assay": "Inhibition of HDAC6/HDAC3 in human MCF7 cells assessed as induction of CTGF mRNA expression at 5 uM after 24 hrs by QIAzol reagent based RT-qPCR analysis", "type": "cell-based"}, "[13]": {"target": "T3, Histone deacetylase 6/3 (Homo sapiens)", "assay": "Inhibition of HDAC6/HDAC3 in human MCF7 cells assessed as induction of CDKN1A mRNA expression at 5 uM after 24 hrs by QIAzol reagent based RT-qPCR analysis", "type": "cell-based"}, "[14]": {"target": "Histone deacetylase 3 (Homo sapiens) (UniProt O15379)", "sequence (O15379 whole entry)": "as the sequence (O15379 whole entry, the tested form may be a part) above", "assay": "Inhibition of HDAC3 in human MCF7 cells assessed as increase in acetylated histone H4 expression at 0.1 to 9 uM after 8 hrs by Western blot analysis", "type": "cell-based"}, "[15]": {"target": "T4, Protein deacetylase HDAC6 (Homo sapiens) (UniProt Q9UBN7)", "T4 sequence (whole entry)": "T2 sequence (Q9UBN7 whole entry)", "assay": "Inhibition of HDAC6 in human MCF7 cells assessed as increase in acetylated alpha-tubulin expression at 0.1 to 9 uM after 8 hrs by Western blot analysis", "type": "cell-based"}, "[16]": {"target": "T5, Estrogen receptor (Homo sapiens) (UniProt P03372)", "T5 sequence (whole entry)": "T1 sequence (P03372 whole entry)", "assay": "Antagonist activity at recombinant human ERalpha expressed in HEK293 cells assessed as inhibition of estradiol-induced YFP-fused SRC1 coactivator recruitment at higher concentration measured after 1 hr in presence of Coelenterazine H by BRET assay", "type": "cell-based"}}, "note": "Active and inactive are the calls of the source. The calls are words filed in the database; no cut-off is given here."}
{"smiles": "CC/C(=C(\\c1ccc(O)cc1)c1ccc(OCCN(C)C)cc1)c1ccc(OCCCCC(=O)NO)cc1", "values": [{"measurement": "IC50", "setting": "Estrogen receptor [1]", "result": 800, "unit": "nM"}, {"measurement": "Activity", "setting": "Estrogen receptor [2]", "result": "Not Active"}, {"measurement": "IC50", "setting": "[3]", "result": 1780, "unit": "nM"}, {"measurement": "IC50", "setting": "[4]", "result": 2100, "unit": "nM"}, {"measurement": "IC50", "setting": "MCF7 [5]", "result": 2900, "unit": "nM"}, {"measurement": "IC50", "setting": "MCF7 [6]", "result": 1200, "unit": "nM"}]}
{"smiles": "CC/C(=C(\\c1ccc(O)cc1)c1ccc(OCCN(C)C)cc1)c1ccc(CCCCC(=O)NO)cc1", "values": [{"measurement": "IC50", "setting": "Estrogen receptor [1]", "result": 820, "unit": "nM"}, {"measurement": "Activity", "setting": "Estrogen receptor [2]", "result": "Not Active"}, {"measurement": "IC50", "setting": "[3]", "result": 300, "unit": "nM"}, {"measurement": "IC50", "setting": "[4]", "result": 734, "unit": "nM"}, {"measurement": "IC50", "setting": "MCF7 [5]", "result": 1300, "unit": "nM"}, {"measurement": "IC50", "setting": "MCF7 [6]", "result": 790, "unit": "nM"}, {"measurement": "IC50", "setting": "MDA-MB-231 [7]", "result": 1270, "unit": "nM"}, {"measurement": "IC50", "setting": "MDA-MB-231 [8]", "result": 1100, "unit": "nM"}, {"measurement": "IC50", "setting": "MCF-10A [9]", "result": 2170, "unit": "nM"}, {"measurement": "IC50", "setting": "MCF-10A [10]", "result": 1830, "unit": "nM"}, {"measurement": "inhibition", "setting": "[11]", "result": "Active"}, {"measurement": "inhibition", "setting": "[12]", "result": "Active"}, {"measurement": "inhibition", "setting": "[13]", "result": "Active"}]}
{"smiles": "CCC(=C(c1ccc(O)cc1)c1ccc(OCCN(C)C)cc1)c1ccccc1", "values": [{"measurement": "IC50", "setting": "MCF7 [5]", "result": 3900, "unit": "nM"}, {"measurement": "IC50", "setting": "MCF7 [6]", "result": 3300, "unit": "nM"}, {"measurement": "IC50", "setting": "MDA-MB-231 [7]", "result": 3500, "unit": "nM"}, {"measurement": "IC50", "setting": "MDA-MB-231 [8]", "result": 2500, "unit": "nM"}, {"measurement": "IC50", "setting": "MCF-10A [9]", "result": 4000, "unit": "nM"}, {"measurement": "IC50", "setting": "MCF-10A [10]", "result": 4000, "unit": "nM"}, {"measurement": "inhibition", "setting": "[14]", "result": "inactive"}, {"measurement": "inhibition", "setting": "[15]", "result": "inactive"}, {"measurement": "inhibition", "setting": "[11]", "result": "inactive"}, {"measurement": "inhibition", "setting": "[12]", "result": "inactive"}, {"measurement": "inhibition", "setting": "[13]", "result": "inactive"}]}
{"smiles": "CC/C(=C(\\c1ccc(O)cc1)c1ccc(OCCN(C)C)cc1)c1ccc(/C=C/C(=O)NO)cc1", "values": [{"measurement": "Activity", "setting": "Estrogen receptor [2]", "result": "Not Active"}, {"measurement": "IC50", "setting": "[3]", "result": 519, "unit": "nM"}, {"measurement": "IC50", "setting": "[4]", "result": 6720, "unit": "nM"}, {"measurement": "IC50", "setting": "MCF7 [5]", "result": 4800, "unit": "nM"}, {"measurement": "IC50", "setting": "MCF7 [6]", "result": 2700, "unit": "nM"}, {"measurement": "inhibition", "setting": "[16]", "result": "Active"}]}
{"smiles": "CC/C(=C(\\c1ccc(O)cc1)c1ccc(OCCN(C)C)cc1)c1ccc(C(=O)NO)cc1", "values": [{"measurement": "IC50", "setting": "Estrogen receptor [1]", "result": 1120, "unit": "nM"}, {"measurement": "Activity", "setting": "Estrogen receptor [2]", "result": "Not Active"}, {"measurement": "IC50", "setting": "[3]", "result": 71900, "unit": "nM"}]}
{"smiles": "CC/C(=C(\\c1ccc(O)cc1)c1ccc(OCCN(C)C)cc1)c1ccc(CCC(=O)NO)cc1", "values": [{"measurement": "IC50", "setting": "Estrogen receptor [1]", "result": 1940, "unit": "nM"}, {"measurement": "Activity", "setting": "Estrogen receptor [2]", "result": "Not Active"}, {"measurement": "IC50", "setting": "[3]", "result": 484, "unit": "nM"}, {"measurement": "IC50", "setting": "[4]", "result": 2010, "unit": "nM"}, {"measurement": "IC50", "setting": "MCF7 [5]", "result": 3600, "unit": "nM"}, {"measurement": "IC50", "setting": "MCF7 [6]", "result": 1800, "unit": "nM"}]}
